Values of other authors, collected in US20100144679A1, “MEDICATION KITS AND FORMULATIONS FOR PREVENTING, TREATING OR REDUCING SECONDARY FRACTURES AFTER PREVIOUS FRACTURE” (DUKE UNIVERSITY, priority 2007, published 2010).

Columns and labels:
[1] = patients with reduced creatinine clearances
bone resorption [2] = system: bone resorption
bone resorption [3] = system: bone resorption; remark: listed apart in the source

C=C1/C(=C\C=C2/CCC[C@]3(C)[C@@H]([C@H](C)CCCC(C)(C)O)CC[C@@H]23)C[C@@H](O)C[C@@H]1O [calcitriol]
fall rates [1]: reduces fall rates

O=P(O)(O)C(O)(Cn1ccnc1)P(=O)(O)O [zoledronic acid, 1-hydroxy-2-(imidazol-1-yl)ethane-1,1-d-iphosphonic acid]
untoward effects on bone formation or mineralization (bone resorption [2]; at the concentrations and doses that inhibit bone resorption): without exerting any untoward effects on either bone formation or mineralization | doses at which bone resorption is inhibited in vivo (bone resorption [2]; in vivo): 0.3 to 30 µg/kg | concentrations at which bone resorption is inhibited in vitro (bone resorption [3]): 0.3 to 30 nM
